As a reminder, the IC50 is the point on the concentration scale where inhibition reaches its midpoint. The term inhibition denotes how much of the control response was suppressed.

The values below come from patent publication US20090203708A1, “NOVEL SUBSTITUTED-1-H-QUINAZOLINE-2,4-DIONE DERIVATIVES, PREPARATION METHOD THEREOF AND PHARMACEUTICAL COMPOSITION CONTAINING THE SAME” (Korea Research Institute of Chemical Technology, priority 2006, published 2009).

In data set [1] the test system is rat maximal electroseizure threshold. Conditions: literature, cited from earlier work.
Data set [2] has as its system yawning, stretching, and chewing. Conditions: rats, literature; cited from earlier work.
The subject of a further data set is food intake. Conditions: literature; cited from earlier work.
A further data set concerns the target 5-HT6 receptors (Homo sapiens, UniProt P50406). The note with it: human 5-HT6 receptors, literature; cited from earlier work.
The conditions of data set [3]: in vivo; cited from earlier work.
Data set [4] has as its system retention of a previously learned task. The note with it: rats, literature; cited from earlier work.
The next data set deals with D1 receptor (Homo sapiens, UniProt P21728). Briefly: Radioligand binding assay, dopamine D1.
For the next data set, the target named is T1, D2 (hD2L receptor) (Homo sapiens, UniProt P14416).
T1 construct: purchased BioSignal Packard Inc., Montreal, Canada
As to the kind of experiment: Radioligand binding assay, dopamine D2. The note with it: [3H] spiperone 1 nM; read-out: Binding affinity IC50 D2. Summed up: (§1)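 Competition binding used human receptor membranes: hD2L with 1 nM [3H]spiperone, and hD4.2 with 0.06 nM [3H]YM-09151-2 in Tris-HCl pH 7.4 with Mg/EDTA/K/Ca. Nonspecific binding was defined with 10 μM haloperidol for D2 and 10 μM clozapine for D4. IC50 was fitted by nonlinear regression from 7–8 concentrations in duplicate, across three assays.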

For data set [5], the system named is apomorphine-induced PPI disruption. As to the kind of experiment: Apomorphine-induced PPI disruption in rat. Conditions: for mean startle amplitude versus apomorphine positive control / effect of pretreatment on apomorphine-induced PPI disruption: rat; for mean startle amplitude versus apomorphine positive control: given 30 min before apomorphine; for effect of pretreatment on apomorphine-induced PPI disruption: i.p. 30 min before apomorphine (2 mg/kg, i.p.), 2.5, 5, 10 and 20 mg/kg.

For data set [6], the target named is human serotonin 5-HT6 receptor (Homo sapiens, UniProt P50406). Briefly: [3H]LSD binding assay for cloned 5-HT6 receptors.
For data set [7], the target named is T2, 5-HT2c (human recombinant receptor, CHO-K1) (Homo sapiens, UniProt P28335).
T2 sequence (P28335 33-458): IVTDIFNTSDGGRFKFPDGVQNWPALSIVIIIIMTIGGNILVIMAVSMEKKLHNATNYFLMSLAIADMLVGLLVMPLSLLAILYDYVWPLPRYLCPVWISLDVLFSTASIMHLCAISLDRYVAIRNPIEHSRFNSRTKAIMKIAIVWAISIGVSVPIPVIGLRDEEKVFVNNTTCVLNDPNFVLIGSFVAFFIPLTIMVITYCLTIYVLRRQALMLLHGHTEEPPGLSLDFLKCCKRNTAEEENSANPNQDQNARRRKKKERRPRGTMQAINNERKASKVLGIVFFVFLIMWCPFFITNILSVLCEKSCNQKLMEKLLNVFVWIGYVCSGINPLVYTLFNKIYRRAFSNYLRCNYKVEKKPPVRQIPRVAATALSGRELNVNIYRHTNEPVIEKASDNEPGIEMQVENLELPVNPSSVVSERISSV
As to the kind of experiment: Radioligand binding assay, 5-HT2c.

Data set [8] deals with T3, HeLa cells transfected with human 5-HT6 receptor (Homo sapiens, UniProt P50406).
T3 construct: expressed in transfected cells; host or cells: HeLa
Briefly: Serotonin-stimulated cAMP accumulation in HeLa cells (EIA). The class given is cell-based. For orientation: cAMP levels reflect the balance of adenylyl cyclase and phosphodiesterase activity.

The next data set relates to lethality. Briefly: Lethality (LD50) in mice. It counts as in vivo. The note with it: i.p.
The next data set addresses D3 (hD3 receptor) (Homo sapiens, UniProt P35462). As to the kind of experiment: Radioligand binding assay, dopamine D3.
The target in data set [9] is 5-HT7 (human recombinant receptor, CHO-K1) (Homo sapiens, UniProt P34969). As to the kind of experiment: Radioligand binding assay, 5-HT7.
For data set [10], the target named is 5-HT2a (human recombinant receptor, CHO-K1) (Homo sapiens, UniProt P28223). Briefly: Radioligand binding assay, 5-HT2a.
The next data set has as its target T4, D4 (hD4.2 receptor) (Homo sapiens, UniProt P21917, DEL265-296).
T4 construct: purchased BioSignal Packard Inc., Montreal, Canada
T4 sequence (P21917 with tags, fused parts or gaps DEL265-296): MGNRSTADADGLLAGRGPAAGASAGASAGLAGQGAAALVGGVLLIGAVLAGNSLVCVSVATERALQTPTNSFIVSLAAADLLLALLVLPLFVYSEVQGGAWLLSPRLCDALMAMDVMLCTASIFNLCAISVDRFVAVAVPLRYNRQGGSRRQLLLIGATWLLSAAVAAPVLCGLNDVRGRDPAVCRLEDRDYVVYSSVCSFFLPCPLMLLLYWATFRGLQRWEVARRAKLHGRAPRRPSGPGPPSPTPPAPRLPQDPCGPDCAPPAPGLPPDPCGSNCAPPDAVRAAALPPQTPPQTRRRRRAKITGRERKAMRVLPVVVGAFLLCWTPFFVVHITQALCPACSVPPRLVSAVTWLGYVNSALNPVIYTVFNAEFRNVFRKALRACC
As to the kind of experiment: Radioligand binding assay, dopamine D4. Conditions: [3H] YM-09151-2 0.06 nM; read-out: Binding affinity IC50 D4. Summed up: as §1

Data set [11] addresses T5, 5-HT1a (human recombinant receptor, CHO-K1) (Homo sapiens, UniProt P08908).
T5 sequence (P08908 1-422): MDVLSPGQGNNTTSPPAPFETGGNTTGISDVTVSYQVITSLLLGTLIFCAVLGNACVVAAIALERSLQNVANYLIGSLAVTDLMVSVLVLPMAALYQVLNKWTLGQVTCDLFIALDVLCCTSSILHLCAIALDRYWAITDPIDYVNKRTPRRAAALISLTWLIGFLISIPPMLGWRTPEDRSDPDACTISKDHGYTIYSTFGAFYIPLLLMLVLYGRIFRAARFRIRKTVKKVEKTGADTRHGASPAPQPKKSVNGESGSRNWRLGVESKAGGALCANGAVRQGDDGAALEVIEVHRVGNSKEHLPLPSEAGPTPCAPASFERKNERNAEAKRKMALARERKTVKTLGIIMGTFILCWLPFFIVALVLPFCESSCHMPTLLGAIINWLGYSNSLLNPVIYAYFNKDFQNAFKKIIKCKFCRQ
As to the kind of experiment: Radioligand binding assay, 5-HT1a.

The next data set relates to rotarod deficit. As to the kind of experiment: Rotarod deficit in mice. It counts as in vivo. The note with it: for Rotarod Deficit TD50: mice, i.p. 30 min before testing; for rotarod dysfunction: mouse, in vivo, ip, 150 mg/kg, 120 min. The method, then: In order to examine the effects of the compounds of the present invention on the central nervous system and behavior, a rotarod test was performed as follows.
Mice were placed on a plastic rod having a node 1 inch in diameter (Ugo-Basile, Milano, Italy), followed by rotating the rod at a speed of 6 rpm. 30, 60, 90 and 120 min after the administration of test compounds, the mice that fell from the rotating rod within 1 min were counted to determine rotarod deficits (%) (Dunham et al., 1957).
(In the rotarod test animals must keep their balance on a rotating rod.)

Data set [12] relates to extracellular glutamate levels in the frontal cortex and dorsal hippocampus. Conditions: literature; cited from earlier work.

T3 sequence (P50406 whole entry): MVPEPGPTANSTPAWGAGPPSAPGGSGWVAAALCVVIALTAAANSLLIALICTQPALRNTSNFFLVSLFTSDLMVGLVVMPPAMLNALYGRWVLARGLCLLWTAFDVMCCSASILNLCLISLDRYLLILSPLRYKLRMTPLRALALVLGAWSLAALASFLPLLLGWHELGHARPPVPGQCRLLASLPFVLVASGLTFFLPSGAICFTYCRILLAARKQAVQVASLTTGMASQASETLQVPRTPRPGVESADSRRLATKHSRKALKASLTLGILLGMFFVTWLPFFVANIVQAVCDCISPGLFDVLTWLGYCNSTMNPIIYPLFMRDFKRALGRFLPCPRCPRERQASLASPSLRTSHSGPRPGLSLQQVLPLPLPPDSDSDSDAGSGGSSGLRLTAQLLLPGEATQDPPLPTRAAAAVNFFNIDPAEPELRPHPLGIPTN
Chain of human serotonin 5-HT6 receptor (P50406 whole entry): as above
Chain of D1 receptor (P21728 whole entry): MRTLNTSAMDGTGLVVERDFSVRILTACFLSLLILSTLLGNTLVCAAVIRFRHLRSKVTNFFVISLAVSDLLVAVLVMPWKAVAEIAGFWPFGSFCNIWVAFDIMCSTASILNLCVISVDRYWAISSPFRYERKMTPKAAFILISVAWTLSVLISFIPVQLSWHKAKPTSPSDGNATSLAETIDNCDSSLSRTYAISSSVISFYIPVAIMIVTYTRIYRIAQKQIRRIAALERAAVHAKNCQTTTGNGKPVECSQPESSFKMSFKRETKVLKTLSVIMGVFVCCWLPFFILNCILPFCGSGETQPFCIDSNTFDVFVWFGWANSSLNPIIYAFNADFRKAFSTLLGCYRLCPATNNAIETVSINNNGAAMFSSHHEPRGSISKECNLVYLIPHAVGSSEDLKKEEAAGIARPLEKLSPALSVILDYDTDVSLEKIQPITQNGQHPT
Chain of 5-HT6 receptors (P50406 whole entry): as the sequence (P50406 whole entry) above
T1 sequence (P14416 whole entry): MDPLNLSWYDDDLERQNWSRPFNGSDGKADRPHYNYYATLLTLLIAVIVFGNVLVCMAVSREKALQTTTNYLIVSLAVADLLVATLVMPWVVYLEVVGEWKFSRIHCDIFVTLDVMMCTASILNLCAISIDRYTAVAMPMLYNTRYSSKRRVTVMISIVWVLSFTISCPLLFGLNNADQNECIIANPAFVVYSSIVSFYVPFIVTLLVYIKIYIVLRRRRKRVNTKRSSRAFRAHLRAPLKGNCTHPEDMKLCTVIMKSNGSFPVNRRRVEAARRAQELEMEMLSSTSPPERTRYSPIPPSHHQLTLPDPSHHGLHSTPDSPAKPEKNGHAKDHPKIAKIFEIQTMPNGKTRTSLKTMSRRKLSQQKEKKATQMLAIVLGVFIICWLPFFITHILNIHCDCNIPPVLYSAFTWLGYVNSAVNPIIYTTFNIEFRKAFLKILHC
Chain of D3 (hD3 receptor) (P35462 whole entry): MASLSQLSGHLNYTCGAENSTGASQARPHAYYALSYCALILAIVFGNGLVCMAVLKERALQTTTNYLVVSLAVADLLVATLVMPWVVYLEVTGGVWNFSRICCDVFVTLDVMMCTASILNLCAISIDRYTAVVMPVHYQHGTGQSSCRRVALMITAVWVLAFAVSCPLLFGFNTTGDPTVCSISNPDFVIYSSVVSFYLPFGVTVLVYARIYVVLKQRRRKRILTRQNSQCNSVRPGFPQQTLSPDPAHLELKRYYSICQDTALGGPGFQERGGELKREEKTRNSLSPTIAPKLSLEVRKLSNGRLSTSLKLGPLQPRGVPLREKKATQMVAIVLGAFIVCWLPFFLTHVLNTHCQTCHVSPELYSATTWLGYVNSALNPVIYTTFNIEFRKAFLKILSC
Chain of 5-HT2a (human recombinant receptor, CHO-K1) (P28223 whole entry): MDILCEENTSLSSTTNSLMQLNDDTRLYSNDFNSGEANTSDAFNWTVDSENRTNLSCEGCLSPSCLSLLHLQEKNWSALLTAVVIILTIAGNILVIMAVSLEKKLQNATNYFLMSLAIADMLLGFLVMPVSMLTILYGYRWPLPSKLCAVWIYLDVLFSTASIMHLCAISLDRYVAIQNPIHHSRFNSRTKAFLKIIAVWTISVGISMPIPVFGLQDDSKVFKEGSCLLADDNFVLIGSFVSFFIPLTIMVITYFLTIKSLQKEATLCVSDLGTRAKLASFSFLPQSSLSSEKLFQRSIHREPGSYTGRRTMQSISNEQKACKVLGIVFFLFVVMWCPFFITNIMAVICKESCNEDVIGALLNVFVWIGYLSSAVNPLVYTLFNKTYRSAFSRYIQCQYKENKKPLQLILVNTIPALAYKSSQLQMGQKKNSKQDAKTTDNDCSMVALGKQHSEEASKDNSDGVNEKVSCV
Chain of 5-HT7 (human recombinant receptor, CHO-K1) (P34969 whole entry): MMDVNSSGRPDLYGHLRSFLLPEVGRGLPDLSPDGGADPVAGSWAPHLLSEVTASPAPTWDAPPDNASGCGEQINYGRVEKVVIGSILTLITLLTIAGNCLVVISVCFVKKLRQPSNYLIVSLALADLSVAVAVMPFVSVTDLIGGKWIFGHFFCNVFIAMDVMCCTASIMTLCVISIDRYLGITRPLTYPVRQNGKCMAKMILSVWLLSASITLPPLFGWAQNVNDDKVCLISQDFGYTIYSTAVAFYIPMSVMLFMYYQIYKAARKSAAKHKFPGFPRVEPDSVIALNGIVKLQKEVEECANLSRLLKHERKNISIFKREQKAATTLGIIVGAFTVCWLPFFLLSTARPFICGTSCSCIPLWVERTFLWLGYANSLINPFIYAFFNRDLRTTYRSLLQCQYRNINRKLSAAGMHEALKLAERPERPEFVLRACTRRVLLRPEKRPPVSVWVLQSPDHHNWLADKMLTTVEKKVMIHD

In the case of `CNc1cc(NS(=O)(=O)c2ccc(N)cc2)nc(NC)n1` [Ro 04-6790], the anticonvulsant activity result in data set [1] is given as “possess anticonvulsant activity”. Moreover, in [2], the “induction of yawning, stretching, and chewing behavior” value is reported as “capable of inducing this same effect”. Moreover, the “food intake by rats” value in the data set with food intake is “decreased food intake”.

As for `COc1ccc2c(c1)c(CCN(C)C)cn2S(=O)(=O)c1ccccc1` [MS-245], at 5-HT6 receptors, the “pA2, antagonist” value is 8.88.

Turning to `COc1ccc(S(=O)(=O)Nc2cc(Br)cc(F)c2Br)cc1N1CCNCC1` [SB-357134], the “seizure threshold (rat maximal electroseizure threshold)” value in data set [1] (oral administration) was “potent and dose-dependent increase in seizure threshold”. In data set [3], the “bioavailability (in words)” value is “excellent oral bioavailability” and the “clearance (in words)” value is “low clearance rate”. For the same molecule, the “retention of a previously learned task in water maze” value in data set [4] is “significant improvement in retention of a previously learned task”.

With `C[C@H](c1ccccc1)n1c(=O)c2c(N3CCN(C)CC3)cc(Cl)cc2n(Cc2ccccc2)c1=O` [Example 40, 1-benzyl-7-chloro-5-(4-methyl-piperazin-1yl)-3-[(R)-1-phenyl-ethyl]-1H-quinazoline-2,4-dione], the IC50 on D1 receptor is 2710 nM; on D2 (hD2L receptor), greater than 10000 nM; in [6], 1.6 nM; in [7], 477 nM; at D3 (hD3 receptor), 983 nM; in data set [9] it was 7420 nM. Moreover, the IC50 in data set [10] was 266 nM; on D4 (hD4.2 receptor) it was greater than 10000 nM; in data set [11], 4350 nM. Further, the “effect of compound alone on PPI versus vehicle control” value in data set [5] (rat, 2.5, 5, 10 and 20 mg/kg i.p. alone) is reported as “no significant effects”. For the same molecule, in [5], the “mean startle amplitude versus apomorphine positive control” value was “did not induce significant difference in mean startle amplitude”. In data set [5], the “effect of pretreatment on apomorphine-induced PPI disruption” value is listed as “found to inhibit apomorphine (2 mg/kg, i.p.)-induced PPI disruption”. Further, the cytotoxicity entry in data set [8] is listed as “did not show any cytotoxicity at all”. The “effect on serotonin-stimulated cAMP accumulation (in words)” value in data set [8] (HeLa cells, FIG. 1) was “inhibited serotonin-stimulated cAMP accumulation in a dose-dependent manner”. Further, the inhibition at 0.001 µM in data set [8] (HeLa, read-out: inhibition of cAMP increase induced by 0.3 μM serotonin, compound 0.001 μM) was found to be 0%. The inhibition at 0.01 µM in [8] (HeLa, read-out: inhibition of cAMP increase induced by 0.3 μM serotonin, compound 0.01 μM) was found to be 35%. Further, in [8] (HeLa, read-out: inhibition of cAMP increase induced by 0.3 μM serotonin, compound 0.1 μM), the inhibition at 0.1 µM is 95%. In addition, the inhibition at 1 µM in [8] (HeLa, read-out: inhibition of cAMP increase induced by 0.3 μM serotonin, compound 1 μM) stood at 100%. In addition, the inhibition at 10 µM in [8] (HeLa, read-out: inhibition of cAMP increase induced by 0.3 μM serotonin, compound 10 μM) turned out to be 100%. The “Lethal Degrees LD50” value with lethality is given as >300 mg/kg, ip. For the same molecule, the “Rotarod Deficit TD50” value in the data set with rotarod deficit is recorded as 139 mg/kg, ip. This molecule displayed a rotarod dysfunction with rotarod deficit of 75%.

Take `COc1ccc(NS(=O)(=O)c2sc3ccc(Cl)cc3c2C)cc1N1CCNCC1` [SB-271046, reference compound]: in [1], the anticonvulsant activity entry is reported as “possess anticonvulsant activity”. For the same molecule, the “extracellular glutamate levels in the frontal cortex and dorsal hippocampus” value in data set [12] was “increased extracellular glutamate levels in the frontal cortex and dorsal hippocampus by several times”. In data set [4], the “retention of a previously learned task in water maze” value is given as “significant improvement in retention of a previously learned task”. Also, in the data set on rotarod deficit, the “Rotarod Deficit TD50” value is listed as 112 mg/kg, ip.

Take `C[C@H](c1ccccc1)n1c(=O)c2c(N3CCNCC3)cc(Cl)cc2n(Cc2ccccc2)c1=O` [Example 68, 1-benzyl-7-chloro-3-[(R)-1-phenyl-ethyl]-5-piperazin-1yl-1H-quinazoline-2,4-dione]: in data set [5], the “mean startle amplitude versus apomorphine positive control” value is reported as “did not induce significant difference in mean startle amplitude” and the “effect of pretreatment on apomorphine-induced PPI disruption” value is “found to inhibit apomorphine (2 mg/kg, i.p.)-induced PPI disruption”. Further, in [6], the IC50 was found to be 6.8 nM. Further, the “Lethal Degrees LD50” value in the data set with lethality was 152 mg/kg, ip. Moreover, in the data set with rotarod deficit, the “Rotarod Deficit TD50” value is on record as 122 mg/kg, ip and the rotarod dysfunction is 100%.
